# PubChem BioAssay (NCI)
#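 Assay format: 96-well plates, 48-hour exposure. GI50: concentration for 50% inhibition of growth. TGI marks complete inhibition of growth.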
# What was measured:
# Assay in all cases: inhibition of tumour cell growth, NCI panel, 48 h
# [1] = tested on: OVCAR-8 ovarian
# [2] = tested on: COLO 205 colon
# [3] = tested on: SW-620 colon
# [4] = tested on: NCI-H23 lung
# [5] = tested on: MALME-3M melanoma
# [6] = tested on: NCI-H226 lung
# [7] = tested on: HCT-116 colon
# [8] = tested on: DU-145 prostate
# [9] = tested on: NCI/ADR-RES ovarian
# [10] = tested on: PC-3 prostate
Compound,TGI [1],TGI [2],TGI [3],TGI [4],TGI [5],TGI [6],TGI [7],GI50 [1],GI50 [8],TGI [8],GI50 [2],GI50 [3],GI50 [6],GI50 [9],TGI [9],GI50 [4],GI50 [7],GI50 [5],GI50 [10],TGI [10]
CC(=O)Oc1cc2c(cc1OC(C)=O)C1(C)CCC2(C)c2cc(OC(C)=O)c(OC(C)=O)cc21,> 100 µM,> 100 µM,63.4 µM,> 100 µM,> 100 µM,–,–,–,–,–,–,–,–,–,–,–,–,–,–,–
CCCCCCCCCCCCCP(=O)(O)O,> 100 µM,> 100 µM,> 100 µM,> 100 µM,> 100 µM,> 100 µM,> 100 µM,–,–,–,–,–,–,–,–,–,–,–,–,–
CCCCCCCCn1ccc2cc(NC(=O)Cn3cc(CN4CCCCCC4)nn3)ccc21,3.73 µM,3.25 µM,3.33 µM,3.77 µM,3.2 µM,5.07 µM,3.1 µM,1.87 µM,1.97 µM,3.81 µM,1.68 µM,1.73 µM,2.23 µM,1.79 µM,3.56 µM,1.76 µM,1.66 µM,1.67 µM,–,–
CC(=O)Oc1c(C)c(-c2ccccc2)c(C)c(-c2ccccc2)c1C(=S)c1ccccc1,> 100 µM,> 100 µM,–,> 100 µM,> 100 µM,> 100 µM,> 100 µM,–,–,–,–,–,–,–,–,–,–,–,–,–
CCOC(=O)[CH-]C(=O)C12CC3CC(CC(C3)C1)C2.CCOC(=O)[CH-]C(=O)C12CC3CC(CC(C3)C1)C2.CC[O-].CC[O-].[Ti+4],> 100 µM,> 100 µM,> 100 µM,> 100 µM,> 100 µM,–,> 100 µM,> 100 µM,–,–,> 100 µM,> 100 µM,–,–,–,> 100 µM,> 100 µM,> 100 µM,–,–
CN(C)C/C=C/C(=O)Nc1ccc(C(=O)N[C@@]2(C)CCC[C@@H](Nc3ncc(Cl)c(-c4c[nH]c5ccccc45)n3)C2)nc1,1.19 µM,0.026 µM,0.36 µM,0.0523 µM,–,–,0.124 µM,0.0154 µM,0.0153 µM,1.09 µM,0.01 µM,< 0.0106 µM,–,–,–,< 0.01 µM,< 0.01 µM,–,< 0.01 µM,0.0833 µM
O=C1C=C(Nc2ccccc2C(=O)CC(=O)C(=O)Nc2cccc([N+](=O)[O-])c2)c2ccccc2C1=O,> 100 µM,> 100 µM,87 µM,> 100 µM,46.7 µM,> 100 µM,> 100 µM,–,–,–,–,–,–,–,–,–,–,–,–,–
Nc1ncc(-c2cnn(C3CCNCC3)c2)cc1-c1nc2cc(Cl)ccc2o1,–,2.91 µM,1.34 µM,3.14 µM,3.37 µM,–,2.13 µM,–,1.63 µM,3.08 µM,1.41 µM,0.363 µM,–,–,–,1.62 µM,0.851 µM,1.71 µM,1.29 µM,2.77 µM
O=C(Nc1ccc(Cl)cc1)C1C(=O)C(=O)N(c2ccc(Cl)cc2)C1=O (stereo not given),> 100 µM,> 100 µM,> 100 µM,> 100 µM,> 100 µM,> 100 µM,> 100 µM,–,–,–,–,–,–,–,–,–,–,–,–,–
C[C@]12CC=CC(=O)[C@@]1(C)CCC(=O)C2,> 100 µM,–,> 100 µM,> 100 µM,> 100 µM,> 100 µM,> 100 µM,–,–,–,–,–,–,–,–,–,–,–,–,–
Cc1ccc(S(=O)(=O)OC2CC=CC2)cc1,> 100 µM,> 100 µM,> 100 µM,–,> 100 µM,> 100 µM,> 100 µM,–,–,–,–,–,–,–,–,–,–,–,–,–
CCN1CCCc2cc3c(C(F)(F)F)cc(=O)oc3cc21,> 100 µM,> 100 µM,> 100 µM,> 100 µM,–,> 100 µM,> 100 µM,–,–,> 100 µM,–,–,–,–,–,–,–,–,–,93.1 µM
NC1=NN(c2ccccc2)C(=O)C1C(=O)CCC(=O)Nc1cccc(Cl)c1 (stereo not given),> 100 µM,> 100 µM,> 100 µM,> 100 µM,> 100 µM,> 100 µM,> 100 µM,–,–,–,–,–,–,–,–,–,–,–,–,–
O=NNc1ccc2ccccc2n1,> 100 µM,–,> 100 µM,> 100 µM,–,> 100 µM,> 100 µM,–,–,> 100 µM,–,–,–,–,> 100 µM,–,–,–,–,> 100 µM
COc1ccc(NC(=O)CC/C(CC(=O)c2ccco2)=N/NC(=O)C(N)=O)cc1,> 100 µM,> 100 µM,> 100 µM,> 100 µM,> 100 µM,> 100 µM,–,–,–,–,–,–,–,–,–,–,–,–,–,–
COc1cc(NCC(C#N)C#N)ccc1N=Nc1ccc(Cl)cc1,> 100 µM,31.7 µM,41.9 µM,65.4 µM,71.4 µM,> 100 µM,62.2 µM,–,–,–,–,–,–,–,–,–,–,–,–,–
COc1ccc([C@@]2(O)c3c(ccc(O)c3OC)[C@H]2OC)c(OC)c1,> 100 µM,> 100 µM,> 100 µM,> 100 µM,> 100 µM,> 100 µM,> 100 µM,–,–,–,–,–,–,–,–,–,–,–,–,–

Compound,TGI [1],TGI [2],TGI [3],TGI [4],TGI [5],TGI [6],TGI [7],GI50 [1],GI50 [8],TGI [8],GI50 [2],GI50 [3],GI50 [6],GI50 [9],TGI [9],GI50 [4],GI50 [7],GI50 [5],GI50 [10],TGI [10]
O=S(=O)(C1=CC(S(=O)(=O)c2ccccc2)CN(Cc2ccccc2)C1c1cccc2ccccc12)c1ccccc1 (stereo not given),> 69 µM,–,> 69 µM,> 69 µM,> 69 µM,> 69 µM,> 69 µM,–,–,–,–,–,–,–,–,–,–,–,–,–
[N-]=[N+]=NCCCn1c2c(c3ccc([N+](=O)[O-])cc3c1=O)C(=O)c1ccccc1-2,0.061 µM,–,> 100 µM,> 100 µM,–,–,> 100 µM,–,> 100 µM,> 100 µM,–,5.26 µM,–,> 100 µM,> 100 µM,9.25 µM,8.17 µM,–,38 µM,> 100 µM
COc1cc(NS(=O)(=O)c2ccc(C)cc2)c2nccnc2c1,> 100 µM,90.1 µM,> 100 µM,> 100 µM,> 100 µM,> 100 µM,–,–,–,–,–,–,–,–,–,–,–,–,–,–
COc1ccc2c(c1)OC1=C(C(=O)OC1)C2c1cc(OC)c2c(c1)OCCO2 (stereo not given),> 100 µM,0.13 µM,> 100 µM,> 100 µM,–,–,> 31.9 µM,0.0712 µM,0.0915 µM,–,0.0362 µM,0.0393 µM,–,0.0279 µM,0.0915 µM,0.0454 µM,0.0478 µM,–,0.0487 µM,> 100 µM
COC(=O)C(=O)CC(=O)CCn1[nH]c(=O)c(Cl)c(Cl)c1=O,> 100 µM,> 100 µM,> 100 µM,> 100 µM,> 100 µM,> 100 µM,> 100 µM,–,–,–,–,–,–,–,–,–,–,–,–,–
CCC[CH2][Sn]([CH2]CCC)([O]C(=O)CN)[O]C(=O)CN,> 100 µM,> 100 µM,37 µM,70.2 µM,41.2 µM,> 100 µM,> 100 µM,69 µM,–,–,42.9 µM,18.1 µM,> 100 µM,–,–,21.1 µM,71.2 µM,6.1 µM,–,–
C[C@]12CCc3sc(Nc4ccc(OC(F)(F)F)cc4)nc3C1=CC[C@@H]1[C@@H]2CC[C@]2(C)C(=O)CC[C@@H]12,25 µM,6.76 µM,5 µM,21.7 µM,16.8 µM,44.1 µM,–,3.49 µM,4.31 µM,25.1 µM,2.61 µM,2.21 µM,6.37 µM,3.93 µM,20.2 µM,3.73 µM,–,3.45 µM,–,–
C=CC[P@]1(=O)O[C@H](c2ccccc2)[C@H](C)N1C,> 100 µM,–,> 100 µM,> 100 µM,> 100 µM,> 100 µM,–,–,–,–,–,–,–,–,–,–,–,–,–,–
CCN(CC)CCNC(Cc1ccccc1)c1ccc(OCc2ccccc2)cc1 (stereo not given),24.4 µM,3.4 µM,20 µM,–,–,34.8 µM,25.5 µM,10.7 µM,8.54 µM,21.1 µM,1.79 µM,5.53 µM,13.8 µM,9.87 µM,23.2 µM,–,4.25 µM,–,3.68 µM,15.7 µM
CC(=O)C1C(c2ccccc2)C2(C)OC(=O)C(C#N)C12C (stereo not given),> 100 µM,> 100 µM,> 100 µM,> 100 µM,> 100 µM,> 100 µM,> 100 µM,–,–,–,–,–,–,–,–,–,–,–,–,–
O=C1N/C(=C\[N+](=O)[O-])c2ccccc21,> 100 µM,> 100 µM,> 100 µM,> 100 µM,> 100 µM,> 100 µM,> 100 µM,–,–,–,–,–,–,–,–,–,–,–,–,–
NC(CCCC(N)P(=O)(O)O)P(=O)(O)O (stereo not given),> 100 µM,> 100 µM,> 100 µM,> 100 µM,> 100 µM,> 100 µM,> 100 µM,–,–,–,–,–,–,–,–,–,–,–,–,–
Cc1ccc(S(=O)(=O)N/N=C2\CCCCC23CCC(=O)NC3)cc1 (stereo not given),> 100 µM,> 100 µM,> 100 µM,–,> 100 µM,> 100 µM,> 100 µM,–,–,–,–,–,–,–,–,–,–,–,–,–
O=C(Nc1ccc(C(F)(F)F)cc1[N+](=O)[O-])C(=O)C1NC(=S)NC1=O (stereo not given),> 100 µM,26.6 µM,> 100 µM,> 100 µM,> 100 µM,24.1 µM,> 100 µM,–,–,–,–,–,–,–,–,–,–,–,–,–
N#CCC(=O)N/N=C1/C(=O)N(c2ccc(Cl)cc2)C(=O)C(=O)C1c1nc2ccccc2s1 (stereo not given),> 100 µM,> 100 µM,> 100 µM,> 100 µM,> 100 µM,> 100 µM,> 100 µM,–,–,–,–,–,–,–,–,–,–,–,–,–
CC1(O)C(C)(O)C2(C)O[Te]3(OC12C)OC1(C)C(C)(O)C(C)(O)C1(C)O3 (stereo not given),32 µM,> 100 µM,–,29.7 µM,> 100 µM,89.2 µM,–,–,–,–,–,–,–,–,–,–,–,–,–,–
COc1ccc(C=O)cc1O[Si](C)(C)C(C)(C)C,> 100 µM,> 100 µM,> 100 µM,> 100 µM,> 100 µM,–,> 100 µM,–,–,–,–,–,–,–,–,–,–,–,–,–
